In patent US4536578A, “1-[3-(6-Fluoro-1,2-benzisoxazol-3-yl)propyl]-4-(substituted)piperazines” (Hoechst-Roussel Pharmaceuticals Inc., priority 1982, dated 1985):
Counter-ions that a name gives are not always drawn. Like-named read-outs stand apart in the source and are kept apart here.

Legend:
[1] = test system: phenyl-para-quinone induced writhing; assay: phenyl-para-quinone writhing assay in mice (analgesia); type: in vivo; settings: Mus musculus, sc, read-out: Analgesic Activity ED50 (dose at which 50% of the phenyl-para-quinone induced writhing is inhibited)
Description: Exptl. Biol. Med., 95, 729 (1957)]. Presented in Table I is the analgesic effect of some of the compounds of the invention, expressed as the subcutaneous dose at which 50% of the phenyl-para-quinone induced writhing is inhibited in the animals, i.e., the ED50.

[2] = test system: spontaneous hypertensive rat; assay: antihypertensive activity in the spontaneous hypertensive rat, indirect tail cuff method; type: in vivo; settings: 50 mg/kg of body wt, intraperitoneal, 3 days, measured on third day, group of 4 rats
Protocol: According to this procedure, the test compound is administered intraperitoneally to a group of 4 rats for 3 days. The decrease in blood pressure is measured on the third day of administration.

[3] = test system: extrapyramidal symptomatology; settings: monkey, in vivo, po
Protocol: Adult male squirrel monkeys (Saimiri sciurens) are housed in individual home cages and fed twice daily with water available "ad libitum" when they are not in the test chambers.
On the test day, drugs are administered by oral intubation immediately prior to testing in volumes of 1.0 cc/kg of body weight. The compounds are dissolved in distilled water or suspended with the addition of one drop of Tween-80 per 10 cc of solution.
After dosing, the monkeys are placed in observation chambers in an isolated room. Two experienced investigators observe the monkeys for dyskinetic symptomatology at 2, 4 and 6 hours postdose. They score the monkeys for the following specific dyskinetic symptomatology:
Circling--when the monkey rapidly circles the cage floor
"Duck walk"--when the monkey walks in a seated position with arms curled and held tightly to his side
Limb extension--an abnormal, prolonged extension of one or more limbs, similar to but of longer duration than a stretching motion
Pushing--the monkey will push against the cage wall with his head or body, frequently at the end of a circling episode
Writhing--slow, writhing movements of the whole body frequently in conjunction with a pushing episode
Oral dyskinesias--chewing, gnawing and abnormal tongue protrusions
The following scoring index is used in order to quantify the severity of symptoms:

[4] = test system: apomorphine-induced climbing; assay: climbing mice assay (apomorphine-induced climbing); type: in vivo; settings: intraperitoneal 30 min before apomorphine 1.5 mg/kg s.c.
Protocol: The subject CK-1 male mice (23-27 grams) are group-housed under standard laboratory conditions. The mice are individually placed in wire mesh stick cages (4"×4" by 10") and are allowed one hour for adaptation and exploration of the new environment.
For evaluation of climbing, 3 readings are taken at 10, 20 and 30 minutes after apomorphine administration according to the following scale:
Mice consistently climbing before the injection of apormorphine will be discarded.
With full-developed apomorphine climbing, the animals are hanging onto the cage walls, rather motionless, over longer periods of time. By contrast, climbs due to mere motor stimulation usually only last a few seconds.
The climbing scores are individually totaled (maximal score: 6 per mouse over 3 readings) and the total score of the control group (vehicle intraperitoneally--apomorphine subcutaneously) is set to 100%.

[5] = test system: conditioned avoidance; assay: Sidman Avoidance Paradigm in squirrel monkeys; type: in vivo, squirrel monkeys (Saimiri sciureus); settings: Primates
Description: The subjects are male squirrel monkeys (Saimiri sciureus). They are housed in individual home cages in the animal quarters for at least six weeks prior to training. When they are not in the test chambers, the subjects are maintained in their home cages with water available ad libitum and food available twice daily.
The apparatus consists of test cages (BRS/LVE) with a single lever and house-light. This is enclosed in a sound-attenuating chamber (BRS/LVE) with fan and the chambers are in an isolated room equipped with a speaker emitting a white-noise auditory background. The test cages have a grid floor of steel bars which are attached to a scrambled shock source (Coulbourn Instruments). The house-lights, shockers and response levers are controlled by BRS/LVE electromechanical timer and controls. The records of responses and shocks are recorded on Coulbourn print-out counters and Gerbrands cumulative recorders.
The monkeys are trained to avoid an unsignaled shock by repetitive lever-pressing responses. A shock (1.0 mA for 0.5 seconds) is delivered to the grid floor every 20 seconds if no responses are made (shock-shock interval of 20 seconds: SS-20"). A lever-press (response) will delay the oncoming shock for 20 seconds (Response-Shock interval of 20 seconds: RS-20").
Every 15 minutes the total number of shocks received and the total number of responses made are accumulated and constitute the basic data. The animals are trained until they maintain a stable response-rate and are receiving no more than 50 shocks per 4 hour test session. After reaching these criteria of performance, experimental compounds are administered and their effects on the performance of this learned avoidance behavior are evaluated.
The drug's effect on performance of each animal is compared to the performance data generated in the previous non-drug session. Each animal thereby serves as its own control. The basic measures of performance during a specific time interval, responses and shocks, are used for evaluation. Responses are reported both as totals and as percent of control responses. Shocks are reported as totals and as shock-avoided (SHA) as percent of control. This latter measure is computed by subtracting the number of shocks received from the total number of possible shocks if no responses are made.
However, an ED50 may be estimated during a representative time of peak activity.

[6] = squirrel monkeys, oral intubation immediately prior to testing, avoidance response, read-out: Antipsychotic Activity, Avoidance Response ED50
[7] = squirrel monkeys, oral intubation immediately prior to testing, escape response, read-out: Antipsychotic Activity, Escape Response ED50

CC(C)=CCN1CCC2(C)c3cc(O)ccc3CC1C2C (centres unmarked) [pentazocine, reference compound]
ED50 [1]: 1.3 mg/kg

CCC(=O)O[C@](Cc1ccccc1)(c1ccccc1)[C@H](C)CN(C)C [propoxyphene, reference compound]
ED50 [1]: 3.9 mg/kg

Cc1ccccc1N1CCN(CCCc2noc3cc(F)ccc23)CC1 [Example 6, 1-[3-(6-Fluoro-1,2-benzisoxazol-3-yl)propyl]-4-(2-methylphenylpiperazine oxalate]
Blood Pressure Decrease (mean arterial blood pressure) [2]: 33 mm/mercury

N=C(N)NCCN1CCCCCCC1 [guanethidine, reference compound]
Blood Pressure Decrease (mean arterial blood pressure) [2]: 20 mm/mercury

Cl.Fc1ccc2c(CCCN3CCN(c4ccccc4Cl)CC3)noc2c1 [Example 4, 4-(2-Chlorophenyl)-1-[3-(6-fluoro-1,2-benzisoxazol-3-yl)propyl]piperazine hydrochloride]
Blood Pressure Decrease (mean arterial blood pressure) [2]: 55 mm/mercury

Cl.Fc1ccc2c(CCCN3CCN(c4cccc(C(F)(F)F)c4)CC3)noc2c1 [Example 5, 1-[3-(6-Fluoro-1,2-benzisoxazol-3-yl)propyl]-4-(3-trifluoromethylphenyl)piperazine hydrochloride]
Blood Pressure Decrease (mean arterial blood pressure) [2]: 66 mm/mercury

Fc1ccc(N2CCN(CCCc3noc4cc(F)ccc34)CC2)cc1.O=C(O)C(=O)O [Example 3, 1-[3-(6-Fluoro-1,2-benzisoxazol-3-yl)propyl]-4-(4-fluorophenyl)piperazine oxalate]
Blood Pressure Decrease (mean arterial blood pressure) [2]: 33 mm/mercury

CSc1ccc2c(c1)N(CCC1CCCCN1C)c1ccccc1S2 (centres unmarked) [thioridazine]
% Monkeys showing extrapyramidal symptoms ([3]; 3.5 mg/kg): 100%
% Monkeys showing extrapyramidal symptoms ([3]; 7 mg/kg): 100%
Antipsychotic Activity (% decrease in climbing score) ([4]; dose 3.5 mg/kg of body wt): 50%
ED50 [5, 6]: 2.6 mg/kg
ED50 [5, 7]: 3.5 mg/kg

O=C(CCCN1CCC(O)(c2ccc(Cl)cc2)CC1)c1ccc(F)cc1 [haloperidol]
% Monkeys showing extrapyramidal symptoms ([3]; 0.625 mg/kg): 33%
% Monkeys showing extrapyramidal symptoms ([3]; 1.3 mg/kg): 100%
Antipsychotic Activity (% decrease in climbing score) ([4]; dose 0.11 mg/kg of body wt): 50%
ED50 ([5]; po, read-out: Antipsychotic Activity, Avoidance Response ED50): 1.21 mg/kg
ED50 ([5]; po, read-out: Antipsychotic Activity, Escape Response ED50): 1.27 mg/kg
ED50 ([5]; po, read-out: ED50 value in the Sidman Avoidance Paradigm in squirrel monkeys (footnote * to Table V)): 1.3 mg/kg

Cl.Cl.Fc1ccc2c(CCCN3CCN(c4ccccn4)CC3)noc2c1 [Example 10, 1-[3-(6-Fluoro-1,2-benzisoxazol-3-yl)propyl]-4-(2-pyridyl)piperazine dihydrochloride]
ED50 ([1]; mice, subcutaneous): 0.8 mg/kg
Antipsychotic Activity (% decrease in climbing score) ([4]; dose 10 mg/kg of body wt): 31%
Blood Pressure Decrease (mean arterial blood pressure) [2]: 66 mm/mercury

Fc1ccc2c(CCCN3CCN(c4ccccc4)CC3)noc2c1.O=C(O)C(=O)O [Example 2, 1-[3-(6-Fluoro-1,2-benzisoxazol-3-yl)propyl]-4-phenylpiperazine oxalate]
ED50 ([1]; mice, subcutaneous): 1.8 mg/kg
Antipsychotic Activity (% decrease in climbing score) ([4]; dose 10 mg/kg of body wt): 31%
Blood Pressure Decrease (mean arterial blood pressure) [2]: 38 mm/mercury

COc1ccccc1N1CCN(CCCc2noc3cc(F)ccc23)CC1 [Example 1, 1-[3-(6-Fluoro-1,2-benzisoxazol-3-yl)propyl]-4-(2-methoxyphenyl)piperazine dihydrochloride]
ED50 ([1]; mice, subcutaneous): 5.2 mg/kg
% Monkeys showing extrapyramidal symptoms ([3]; 3.5 mg/kg): 0%
% Monkeys showing extrapyramidal symptoms ([3]; 5 mg/kg): 0%
% Monkeys showing extrapyramidal symptoms ([3]; 10 mg/kg): 66%
Antipsychotic Activity (% decrease in climbing score) ([4]; dose 4.1 mg/kg of body wt): 50%
ED50 [5, 6]: 2.9 mg/kg
ED50 [5, 7]: 4.8 mg/kg
ED50 ([5]; squirrel monkeys, oral, printed as dose with * in Table V, read-out: ED50 value in the Sidman Avoidance Paradigm in squirrel monkeys (footnote * to Table V)): 3.5 mg/kg
